# Literature values as cited in US20020002154A1, “METHOD AND COMPOSITION FOR TREATMENT OF INFLAMMATORY CONDITIONS” (priority 1998, published 2002).
# Tested on: acute phase of Crohn's Disease (CD)
structure (smiles),measurement,value
CCCC1O[C@@H]2C[C@H]3[C@@H]4CCC5=CC(=O)C=C[C@]5(C)[C@H]4[C@@H](O)C[C@]3(C)[C@]2(C(=O)CO)O1 (stereo partly shown) [budesonide],side-effects compared to prednisone,fewer side-effects
